This note sets out measurements from patent publication US9228175B2, “Genes encoding a novel type of lysophophatidylcholine acyltransferases and their use to increase triacylglycerol production and/or modify fatty acid composition” (National Research Counsel of Canada, priority 2006, dated 2016).

Common to all, as to type: biochemical
One experiment concerns the target T1, LCA1 (Saccharomyces cerevisiae, UniProt Q08548).
T1 construct: Saccharomyces cerevisiae YOR175c ORF was PCR-amplified; made in house; host or cells: S. cerevisiae YOR175c deletion strain Y02431 (lca1Δ), pYES2.1, galactose induction; microsomal fraction
T1 sequence (Q08548 1-619): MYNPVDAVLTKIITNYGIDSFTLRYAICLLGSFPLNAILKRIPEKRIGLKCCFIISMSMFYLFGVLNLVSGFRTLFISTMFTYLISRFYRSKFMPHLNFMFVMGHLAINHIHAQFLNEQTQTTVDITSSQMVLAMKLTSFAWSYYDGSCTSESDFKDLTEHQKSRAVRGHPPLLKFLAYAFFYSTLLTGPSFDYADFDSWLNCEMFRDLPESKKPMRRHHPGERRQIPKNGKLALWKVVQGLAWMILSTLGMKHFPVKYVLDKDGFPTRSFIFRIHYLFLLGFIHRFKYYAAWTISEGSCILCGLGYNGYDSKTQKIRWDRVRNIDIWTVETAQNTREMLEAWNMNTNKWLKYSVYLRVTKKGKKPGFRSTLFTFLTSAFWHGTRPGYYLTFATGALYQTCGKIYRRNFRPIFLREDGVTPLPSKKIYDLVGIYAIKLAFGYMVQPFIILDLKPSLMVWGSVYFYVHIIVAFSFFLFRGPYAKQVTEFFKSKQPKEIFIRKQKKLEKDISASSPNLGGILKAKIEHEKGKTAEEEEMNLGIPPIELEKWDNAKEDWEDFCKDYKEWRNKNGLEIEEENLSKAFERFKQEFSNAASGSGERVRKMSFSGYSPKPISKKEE
Put plainly: Zn^2+ / Mg^2+ effect on LPCAT activity of LCA1 (in vitro assay, microsomes of lca1Δ over-expressing LCA1). As to conditions: for LPCAT activity (% control): 5.6 μM palmitoyl-LPC, 11.25 μM stearyl-CoA, 1.5 μg microsomal protein, pH 7.4, two minutes, mean±S.D. As for the experimental part: Microsomal preparation: Yeast strains were first grown in 15 ml of SC-Leu-His-Ura medium containing 2% glucose. Protein expression induction was carried out as described in Invitrogen manufacturer manual for yeast expression vector pYES2.1. After 24 hours of growth in SC+2% galactose+1% raffinose induction conditions, the cells were washed, first with distilled water and then with wall-breaking buffer (50 mM Tris-HCl, 1 mM EDTA, 0.6 M sorbitol, pH 7.4, 1 mM DTT). After centrifugation at 4,000 rpm (Eppendorf Centrifuge 5145C), the cells were resuspended in 1 ml wall-breaking buffer with 10 μl yeast protease cocktail (Sigma), and shaken vigorously in the presence of acid-washed glass beads (diameter 0.5 mm). The resultant homogenate was centrifuged at 12,000 rpm for ten minutes at 4° C. The decanted supernatant was further centrifuged at 100,000×g for 90-120 minutes at 4° C. The supernatant was discarded, and the pellet was suspended in homogenization buffer containing 20% glycerol and frozen at −80° C. until use. Protein concentration was measured using Bio-Rad Protein Assay Kit for final enzyme activity calculation.
In Vitro Assay of LPCAT activity: LPCAT substrate specificity was determined by measuring incorporation of [^14C] lysophosphatidylcholine or [^14C] palmitoyl-CoA into phosphatidylcholine. All assays were performed at least twice. For lysophospholipid substrate specificity assessment, 400 μl HEPES buffer contained 3 μg microsomal protein, 50 μM of lysophospholipid substrates and 112.5 μM [^14C] palmitoyl-CoA (5.5 nCi/nmol). For acyl-CoA substrate selectivity analysis, 400 μl HEPES reaction buffer (pH7.4, 0.1 M) contained 3 μg microsomal protein, 50 μM acyl-CoA and 112.5 μM [^14C] […] (1.35 nCi/nmol). Reaction was allowed for 2 minutes at 30° C. with 100 rpm shaking. The reaction products were extracted with chloroform/methanol (2/1, v/v) and separated with Merck silica G60 TLC plates. Spots corresponding to different phospholipid species products were scraped off and ^14C incorporation were scintillation counted. Different concentrations of ZnCl2 were added in to reactions for Zn^2+ inhibitory effect assay.
Results are expressed as means±S.D. The lca1Δ over-expressing LCA1 was used to assess Zn^2+ effect. The reactions contained 5.6 μM palmitoyl-LPC (1.35 nCi/nmol), 1.5 μg microsomal proteins, 0.1 M HEPES (pH 7.4), 11.25 μM stearyl-CoA and indicated concentration of ZnCl2. The reaction was stopped after two minutes by adding 2 ml of chloroform/methanol solution (2:1).

In the next experiment the target is T2, AtLPCAT2 (Arabidopsis thaliana, UniProt Q9CAN8).
T2 construct: made in house; host or cells: S. cerevisiae YOR175c deletion strain BY02431 (lca1Δ), pYES2.1 TOPO, galactose induction; microsomal protein
T2 sequence (Q9CAN8 1-465): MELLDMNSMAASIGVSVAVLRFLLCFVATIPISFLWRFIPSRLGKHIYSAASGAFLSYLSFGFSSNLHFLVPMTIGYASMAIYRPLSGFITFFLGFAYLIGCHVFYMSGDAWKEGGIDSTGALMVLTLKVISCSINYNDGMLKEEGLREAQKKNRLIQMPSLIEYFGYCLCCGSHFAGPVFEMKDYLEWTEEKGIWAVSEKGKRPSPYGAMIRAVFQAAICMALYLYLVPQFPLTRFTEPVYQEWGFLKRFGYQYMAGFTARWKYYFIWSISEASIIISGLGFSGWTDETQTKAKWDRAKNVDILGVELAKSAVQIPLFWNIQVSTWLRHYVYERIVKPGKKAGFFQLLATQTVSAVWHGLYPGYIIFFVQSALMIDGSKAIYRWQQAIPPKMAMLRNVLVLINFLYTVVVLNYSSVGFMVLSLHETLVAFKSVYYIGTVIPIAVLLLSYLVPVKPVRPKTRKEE
Put plainly: Zn^2+ sensitivity of AtLPCAT2, in vitro LPCAT assay. Particulars: increasing ZnCl2; 25 μM palmitoyl-LPC, 25 μM stearyl-CoA, 20 μg microsomal protein, pH 7.4. On the procedure:
(§1) FIG. 19 is a graph depicting the inhibitory effect of Zn^2+ on AtLPCATs activity. The lca1Δ over-expressing AtLPCATs was used to asses Zn^2+ effect. The reactions contained 25 μM palmitoyl-LPC (1.35 nCi/nmol), 20 μg microsomal proteins, 0.1 M HEPES (pH 7.4), 25 μM stearyl-CoA and indicated concentration of ZnCl2.
(§2) AtLPCAT substrate specificity was determined by counting incorporation of 14C-labeled lysophosphatidylcholine or 14C-labeled palmitoyl-CoA into phosphatidylcholine. All assays were performed at least twice. […] reaction mixture contained […] microsomal protein, […] acyl-CoA and […], pH7.4. 14C-lysophosphatidylcholine (1.4 nCi/nmol) or 14C-palmityl-CoA (5.5 nCi/nmol) was used to assess fatty-CoA or lyso-lipid substrate specificity. Reaction was allowed for ten minutes at 30° C. All radiolabel chemicals for these assays were purchased from ARC, Inc.

For another experiment, the target named is T3, AtLPCAT1 (Arabidopsis thaliana, UniProt F4IDU4).
T3 construct: made in house; host or cells: S. cerevisiae YOR175c deletion strain BY02431 (lca1Δ), pYES2.1 TOPO, galactose induction; microsomal protein
T3 sequence (F4IDU4 1-462): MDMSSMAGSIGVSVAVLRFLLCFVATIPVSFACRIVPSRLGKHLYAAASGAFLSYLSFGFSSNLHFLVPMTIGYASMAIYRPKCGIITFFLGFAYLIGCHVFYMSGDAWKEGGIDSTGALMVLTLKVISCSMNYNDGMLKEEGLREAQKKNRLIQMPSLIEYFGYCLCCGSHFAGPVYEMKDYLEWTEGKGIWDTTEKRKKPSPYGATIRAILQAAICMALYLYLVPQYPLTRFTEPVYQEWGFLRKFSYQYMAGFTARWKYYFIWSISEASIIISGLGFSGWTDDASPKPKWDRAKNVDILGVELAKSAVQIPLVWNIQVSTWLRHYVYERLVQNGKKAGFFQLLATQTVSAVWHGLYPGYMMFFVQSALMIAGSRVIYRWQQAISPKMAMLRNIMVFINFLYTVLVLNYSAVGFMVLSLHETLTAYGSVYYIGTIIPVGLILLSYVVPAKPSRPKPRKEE
In words: Zn^2+ sensitivity of AtLPCAT1, in vitro LPCAT assay. As to conditions: increasing ZnCl2; 25 μM palmitoyl-LPC, 25 μM stearyl-CoA, 20 μg microsomal protein, pH 7.4. On the procedure:
as §1, §2

Turning to `[Cl-].[Cl-].[Zn+2]` [ZnCl2], the “Concentration at which the maximum increase of LPCAT activity was observed” value at LCA1 turned out to be 25 µM. Moreover, the “LPCAT activity (% control)” value came to 98 ± 5.9 % control on LCA1 (5 μM ZnCl2); 136.8 ± 3.9 % control on LCA1 (10 μM ZnCl2); 149.7 ± 12.0 % control on LCA1 (25 μM ZnCl2); 35 ± 22.4 % control at LCA1 (0.1 mM ZnCl2); 6 ± 2.0 % control on LCA1 (20 mM ZnCl2). The figures for the “Effect on LPCAT activity of LCA1” value at LCA1 (lower (10-25 μM) concentration) and on LCA1 (range between 0.1 mM to 20 mM) were “enhanced LPCAT activity” and “significant reduction”, respectively. The “AtLPCAT2 activity with Zn^2+ added” value at AtLPCAT2 is “decreased with increasing concentration”. In addition, on AtLPCAT1, the “AtLPCAT1 activity with Zn^2+ added” value was “decreased with increasing concentration”.
